PubChem BioAssay (NCI)
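Test compounds were applied to cells in 96-well plates for 48 hours at 5 doses. Abbreviation: GI50, concentration required for 50% inhibition of growth. TGI: total growth inhibition.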

Assays:
Assay in all cases: DTP human tumour cell line panel, 48 h; in the data active means GI50 below about 0.43 µM; inactive means the rest
[1] = tested on: 786-0 renal
[2] = tested on: A549 NSCLC
[3] = tested on: ACHN renal
[4] = tested on: BT-549 breast
[5] = tested on: CAKI-1 renal
[6] = tested on: CCRF-CEM leukemia
[7] = tested on: COLO 205 colon
[8] = tested on: DU-145 prostate
[9] = tested on: HCC-2998 colon
[10] = tested on: HCT-116 colon
[11] = tested on: HCT-15 colon
[12] = tested on: HL-60(TB) leukemia
[13] = tested on: HOP-62 NSCLC
[14] = tested on: HOP-92 NSCLC
[15] = tested on: HS 578T breast
[16] = tested on: HT29 colon
[17] = tested on: IGROV1 ovarian
[18] = tested on: K-562 leukemia
[19] = tested on: KM12 colon
[20] = tested on: LOX IMVI melanoma
[21] = tested on: M14 melanoma
[22] = tested on: MCF7 breast
[23] = tested on: MDA-MB-231 breast
[24] = tested on: MDA-MB-435
[25] = tested on: MOLT-4 leukemia
[26] = tested on: NCI-H226 lung
[27] = tested on: NCI-H23 lung
[28] = tested on: NCI-H460 lung
[29] = tested on: NCI-H522 lung
[30] = tested on: NCI/ADR-RES ovarian
[31] = tested on: OVCAR-3 ovarian
[32] = tested on: OVCAR-4 ovarian
[33] = tested on: OVCAR-5 ovarian
[34] = tested on: OVCAR-8 ovarian
[35] = tested on: PC-3 prostate
[36] = tested on: RPMI-8226 leukemia
[37] = tested on: RXF 393 renal
[38] = tested on: SF-268 CNS
[39] = tested on: SF-295 CNS
[40] = tested on: SF-539 CNS
[41] = tested on: SK-MEL-2 melanoma
[42] = tested on: SK-MEL-28 melanoma
[43] = tested on: SK-MEL-5 melanoma
[44] = tested on: SK-OV-3 ovarian
[45] = tested on: SN12C renal
[46] = tested on: SNB-19 CNS
[47] = tested on: SNB-75 CNS
[48] = tested on: SR leukemia
[49] = tested on: SW-620 colon
[50] = tested on: T-47D breast
[51] = tested on: TK-10 renal
[52] = tested on: U251 CNS
[53] = tested on: UACC-257 melanoma
[54] = tested on: UACC-62 melanoma
[55] = tested on: UO-31 renal
[56] = tested on: A498 renal
[57] = tested on: EKVX NSCLC
[58] = tested on: MALME-3M melanoma

O=C(CC(O)c1ccncc1)c1ccccc1 (configuration not stated)
93.3 µM: TGI [44]
49.5 µM: TGI [20]
85.3 µM: TGI [16]
79.4 µM: TGI [25]
31.2 µM: TGI [7]
62.6 µM: TGI [36]
55.3 µM: TGI [41]
89.2 µM: TGI [28]
inactive: GI50 [1] 30 µM | GI50 [2] 29 µM | GI50 [3] 25.9 µM | GI50 [4] 22.4 µM | GI50 [5] 23.1 µM | GI50 [6] 30.7 µM | GI50 [7] 16.5 µM | GI50 [8] 45.5 µM | GI50 [9] 35 µM | GI50 [10] 19.3 µM | GI50 [11] 28.2 µM | GI50 [12] 17.6 µM | GI50 [13] 31.7 µM | GI50 [14] 16.1 µM | GI50 [15] 36.4 µM | GI50 [16] 28.6 µM | GI50 [17] 35.9 µM | GI50 [18] 23.9 µM | GI50 [19] 33.7 µM | GI50 [20] 20.9 µM | GI50 [21] 28.6 µM | GI50 [22] 24.7 µM | GI50 [23] 16.7 µM | GI50 [24] 20.8 µM | GI50 [25] 22.2 µM | GI50 [26] 33.9 µM | GI50 [27] 42.8 µM | GI50 [28] 27.1 µM | GI50 [29] 29.4 µM | GI50 [30] 29.8 µM | GI50 [31] 30.5 µM | GI50 [32] 20.5 µM | GI50 [33] 37.6 µM | GI50 [34] 33.8 µM | GI50 [35] 23.3 µM | GI50 [36] 17.9 µM | GI50 [37] 21.3 µM | GI50 [38] 37.1 µM | GI50 [39] 27.7 µM | GI50 [40] 19.5 µM | GI50 [41] 21.2 µM | GI50 [42] 21.9 µM | GI50 [43] 16.1 µM | GI50 [44] 25.4 µM | GI50 [45] 29.8 µM | GI50 [46] 34.1 µM | GI50 [47] 17.8 µM | GI50 [48] 18.9 µM | GI50 [49] 32.2 µM | GI50 [50] 25.7 µM | GI50 [51] 41.8 µM | GI50 [52] 28.6 µM | GI50 [53] 23.8 µM | GI50 [54] 32 µM | GI50 [55] 22.1 µM
56.5 µM: TGI [24]
47.6 µM: TGI [48]
80.4 µM: TGI [53]
70.4 µM: TGI [42]
54.6 µM: TGI [10] | TGI [23]
48.3 µM: TGI [40]
59.6 µM: TGI [12]
> 100 µM: TGI [1] | TGI [2] | TGI [3] | TGI [5] | TGI [6] | TGI [8] | TGI [9] | TGI [11] | TGI [13] | TGI [15] | TGI [17] | TGI [18] | TGI [19] | TGI [21] | TGI [22] | TGI [26] | TGI [27] | TGI [30] | TGI [31] | TGI [32] | TGI [33] | TGI [34] | TGI [35] | TGI [37] | TGI [38] | TGI [39] | TGI [45] | TGI [46] | TGI [47] | TGI [49] | TGI [50] | TGI [51] | TGI [52] | TGI [54] | TGI [55]
99.3 µM: TGI [29]
30.8 µM: TGI [43]
88.4 µM: TGI [4]
69.6 µM: TGI [14]

COC(=O)c1cc2c3ccccc3n3c(=O)c4cc5cc(OC)c(N(S(=O)(=O)c6ccc(C)cc6)S(=O)(=O)c6ccc(C)cc6)cc5nc4c(n1)c23
inactive: GI50 [1] 3.23 µM | GI50 [56] 10.2 µM | GI50 [2] > 100 µM | GI50 [3] 6.03 µM | GI50 [4] 11 µM | GI50 [5] > 100 µM | GI50 [7] > 100 µM | GI50 [8] 32 µM | GI50 [57] 39.2 µM | GI50 [9] > 100 µM | GI50 [10] 13.5 µM | GI50 [11] > 100 µM | GI50 [12] 74.7 µM | GI50 [14] 4.42 µM | GI50 [15] 4.97 µM | GI50 [16] > 100 µM | GI50 [18] 47.2 µM | GI50 [19] > 100 µM | GI50 [20] 23.5 µM | GI50 [21] 32.7 µM | GI50 [58] > 100 µM | GI50 [22] > 100 µM | GI50 [23] 9.62 µM | GI50 [24] > 100 µM | GI50 [25] 35.2 µM | GI50 [26] 23.9 µM | GI50 [27] 16.7 µM | GI50 [28] > 100 µM | GI50 [30] > 100 µM | GI50 [31] > 100 µM | GI50 [32] > 100 µM | GI50 [33] > 100 µM | GI50 [34] 67.9 µM | GI50 [35] > 100 µM | GI50 [37] 7.56 µM | GI50 [38] 7.78 µM | GI50 [39] 5.15 µM | GI50 [40] 13 µM | GI50 [42] > 100 µM | GI50 [43] > 100 µM | GI50 [44] 4.53 µM | GI50 [45] 95.7 µM | GI50 [46] 5.8 µM | GI50 [47] 3.99 µM | GI50 [48] 41.4 µM | GI50 [49] > 100 µM | GI50 [50] > 100 µM | GI50 [51] 8.92 µM | GI50 [52] 2.62 µM | GI50 [53] > 100 µM | GI50 [54] 24.9 µM
21.7 µM: TGI [39]
13.4 µM: TGI [52]
32.3 µM: TGI [23]
59.7 µM: TGI [10]
63.2 µM: TGI [27]
32 µM: TGI [46]
81.3 µM: TGI [44]
22.2 µM: TGI [3]
20.4 µM: TGI [47]
14.5 µM: TGI [1]
29.6 µM: TGI [56]
26.1 µM: TGI [37]
27.8 µM: TGI [4]
54.2 µM: TGI [15]
30.6 µM: TGI [40]
21.3 µM: TGI [14]
> 100 µM: TGI [2] | TGI [5] | TGI [7] | TGI [8] | TGI [57] | TGI [9] | TGI [11] | TGI [12] | TGI [16] | TGI [18] | TGI [19] | TGI [20] | TGI [21] | TGI [58] | TGI [22] | TGI [24] | TGI [25] | TGI [26] | TGI [28] | TGI [30] | TGI [31] | TGI [32] | TGI [33] | TGI [34] | TGI [35] | TGI [38] | TGI [42] | TGI [43] | TGI [45] | TGI [48] | TGI [49] | TGI [50] | TGI [53] | TGI [54]
23.6 µM: TGI [51]
